These results are taken from patent EP2766407B1, “PENTABLOCK POLYMERS” (The Curators Of The University Of Missouri, priority 2011, dated 2013).

Holding throughout (assay type): cell-based
In series [1] the test system is RAW 264.7 (mouse macrophage cell line). Put plainly: MTS assay (cytotoxicity), Pentablock Polymer A protocol. As to conditions: RAW 264.7, Triton X control; blank = 100. On the procedure:
(§1) The cytotoxicity and biocompatibility of the Pentablock Polymer A and Pentablock Polymer B were investigated in several cell lines. ARPE-19 (human retinal pigment epithelial cell line), SIRC (rabbit corneal cell line), and RAW 264.7 (mouse macrophage cell line) were obtained from American Type Culture Collection ("ATCC"). ARPE-19 cells were cultured in Dubelcco's modified Eagle's medium ("DMEM/F12") supplemented with 10% fetal bovine serum ("FBS"), 100 U/mL penicillin and 100 µg/mL of streptomycin. SIRC cells were cultured in minimum essential medium ("MEM") and supplemented with 10% FBS, 100 U/mL of penicillin and 100 µg/mL of streptomycin. RAW 264.7 (Mouse macrophage cells) cells were cultured in DMEM/F12supplemented with 10% FBS, 10% of nonessential amino acids, 100 U/mL penicillin and 100 µg/mL of streptomycin. The pH of the medium was adjusted to 7.4 and cells were incubated in humidified atmosphere at 37 °C temperature with 5% CO2 environment. The cell cultures were exposed directly to different concentrations of Pentablock Polymer A and Pentablock Polymer B. […]
(§2) MTS assay is based on the reduction of the tetrazolium salt (yellow) to fromazone (purple) by mitochondrial enzymes of metabolic active cells. […] After incubation, the absorbance of each well was measured at 450 nm by ELISA plate reader. The absorbance is directly proportional to viability of cells. […]
(Formazan colour is commonly taken as a measure of viable cells.)

Series [2] has as its system SIRC (rabbit corneal cell line). The description is as above. The note with it: Triton X control, blank = 100. The procedure: as §1, §2
Series [3] concerns ARPE-19 (human retinal pigment epithelial cell line). Put plainly: MTS assay (cytotoxicity), Pentablock Polymer B protocol. The note with it: ARPE 19, Triton X control; blank = 100. On the procedure: as §1, §2
Series [4] has as its system PCEC. The description is as above. As to conditions: Triton X control, blank = 100. The procedure:
Pentablock Polymer B: Cytotoxicity for Pentablock Polymer B was performed at different concentration ranging from 0.5-10 mg/ml. The plates were seeded with cell density of 10,000 cells/100 µL. After 24 hours of incubation fresh medium containing hydrogel of different concentration ranging from 0.5-10 mg/ml were added and further incubated for 24 hours. MTS assay is based on the reduction of the tetrazolium salt (yellow) to fromazone (purple) by mitochondrial enzymes of metabolic active cells. The amount of the fromazone is directly proportional to viable cells. In MTS assay Trioton X treated cells were served as negative control and untreated cells served as positive control. Then, 100 µL of serum free medium containing 20 µL of MTS solution was added to the 96 well plates, and these plates were incubated at 37 °C and 5% CO2 for 4 hours. After incubation, the absorbance of each well was measured at 450 nm by ELISA plate reader. The absorbance is directly proportional to viability of cells. Table 1: MTS assay on Pentablock Polymer A

Regarding Triton X, the MTS assay in series [1] turned out to be 0 ± 0.594; in series [2] it was 0 ± 0.271; in series [3], 0.000 ± 0.491; in series [4], 0.000 ± 1.099.
